Literature values in patent US12649758B2, “Industrial method for simultaneously preparing Stevia rebaudiana chlorogenic acid and stevioside” (Chenguang Biotech Group Co., Ltd., priority 2018, dated 2026).

## C=C1C[C@@]23CC[C@H]4[C@@](C)(CCC[C@@]4(C)C(=O)O[C@@H]4O[C@H](CO)[C@@H](O)[C@H](O)[C@H]4O)[C@@H]2CC[C@]1(O[C@@H]1O[C@H](CO)[C@@H](O)[C@H](O)[C@H]1O[C@@H]1O[C@H](CO)[C@@H](O)[C@H](O)[C@H]1O)C3 [Stevioside, stevioside]
  sweetness relative to sucrose: 300 to 500 times of sucrose
